{"source": "paper PMC3792011", "about": "(Clinical Pharmacology : Advances and Applications, 2013)", "origin": "cited, not measured here", "key": {"[1]": {"conditions": "steady state; bibliographic data"}, "[2]": {"conditions": "treatment guidelines"}}, "note": "“And” between values parts separate entries of the source, which are not always exact repeats. Identical values can stand only once.", "data": [{"molecule": "COC(=O)N[C@H](C(=O)N[C@@H](Cc1ccccc1)[C@@H](O)CN(Cc1ccc(-c2ccccn2)cc1)NC(=O)[C@@H](NC(=O)OC)C(C)(C)C)C(C)(C)C", "note": "[ATZ, Atazanavir]", "values": [{"measurement": "AUC, geometric mean (CV %)", "setting": "[1]", "value": "65.4 (0.1) μmol · h/L"}, {"measurement": "AUC, mean (SD)", "setting": "[1]", "value": "76.4 (50.1) μmol · h/L"}, {"measurement": "Cmax_SS_ATZ, geometric mean (CV %)", "setting": "[1]", "value": "6.2 (0.1) μmol/L"}, {"measurement": "Cmax_SS_ATZ, mean (SD)", "setting": "[1]", "value": "7.4 (4.3) μmol/L"}, {"measurement": "Cmin_SS_ATZ, geometric mean (CV %)", "setting": "[1]", "value": "0.9 μmol/L and 0.9 (0.1) μmol/L"}, {"measurement": "Cmin_SS_ATZ, mean (SD)", "setting": "[1]", "value": "1.2 (1.2) μmol/L"}, {"measurement": "T-half, mean (SD)", "setting": "[1]", "value": "8.6 (2.3) h"}, {"measurement": "Recommended upper limit of plasma concentration (risk of hyperbilirubinemia)", "setting": "[2]", "value": "< 1.1", "unit": "µmol/L"}]}]}
